Laboratory results from patent EP0598515A1, “Method for herbicidal activity-enhancing, activity-enhanced herbicidal composition and activity-enhancing composition” (ISHIHARA SANGYO KAISHA LTD., priority 1992, dated 1994).
Like-named read-outs stand apart in the source and are kept apart here.

How the values were obtained:
[1] = tested on: Velvetleaf (Abutilon theophrasti MEDIC.); experiment: Test Example 9: pot test, Example 8 suspension concentrate with Frigate; format: in vivo; conditions: 22 days after treatment; for inhibition at 20 g/ha: Compound A 20 g/ha; for inhibition at 40 g/ha: Compound A 40 g/ha
Experimental: (§1) Velvetleaf (Abutilon theophrasti MEDIC.) and common cocklebur (Xanthium strumarium L.) seeds were sown in 1/1,000,000-hectare pots filled with upland soil and arranged in a duplicate system. When the velvetleaf plants and common cocklebur plants grew to a 2.1- and 2.3-leaf stage, respectively, the oil-based suspension concentrate obtained in Example 8 was diluted with 500 liters/hectare of water containing a predetermined amount of Frigate and was applied foliarly to the plants with a small spray gun.
(§2) Twenty two days after treatment, the growth inhibition of plants was evaluated with visual observation in the same manner as in Test Example 1 and are shown in Table 9.

[2] = tested on: common cocklebur (Xanthium strumarium L.); experiment: as above; format: in vivo; conditions: 22 days after treatment; for inhibition at 40 g/ha: Compound A 40 g/ha
Experimental: as §1, §2

[3] = Abutilon theophrasti, 528 h, Frigate 0.125 % by volume, duplicate, read-out: Growth Inhibition (%) Velvetleaf
[4] = Abutilon theophrasti, 528 h, Frigate 0.25 % by volume, duplicate, read-out: Growth Inhibition (%) Velvetleaf
[5] = Abutilon theophrasti, 528 h, Frigate: No addition, duplicate, read-out: Growth Inhibition (%) Velvetleaf
[6] = Frigate 0.25 % by volume, Compound A 10 g/ha, duplicate

## COc1cc(OC)nc(NC(=O)NS(=O)(=O)c2ncccc2C(=O)N(C)C)n1 [Compound A, N-[(4,6-dimethoxypyrimidin-2-yl)aminocarbonyl]-3-dimethylaminocarbonyl-2-pyridinesulfonamide]
[1]; Abutilon theophrasti, 528 h, Frigate 0.125 % by volume, Compound A 10 g/ha, duplicate, read-out: Growth Inhibition (%) Velvetleaf
  inhibition at 10 g/ha: 30%
[1]; [3]
  inhibition at 20 g/ha: 65%
  inhibition at 40 g/ha: 85%
[1]; Abutilon theophrasti, 528 h, Frigate 0.25 % by volume, Compound A 10 g/ha, duplicate, read-out: Growth Inhibition (%) Velvetleaf
  inhibition at 10 g/ha: 40%
[1]; [4]
  inhibition at 20 g/ha: 80%
  inhibition at 40 g/ha: 85%
[1]; Abutilon theophrasti, 528 h, Frigate 0.5 % by volume, Compound A 10 g/ha, duplicate, read-out: Growth Inhibition (%) Velvetleaf
  inhibition at 10 g/ha: 60%
[1]; Abutilon theophrasti, 528 h, Frigate 0.5 % by volume, duplicate, read-out: Growth Inhibition (%) Velvetleaf
  inhibition at 20 g/ha: 80%
[1]; Abutilon theophrasti, 528 h, Frigate 0.5 % by volume, read-out: Growth Inhibition (%) Velvetleaf
  inhibition at 40 g/ha: 90%
[1]; [5]
  inhibition at 20 g/ha: 20%
  inhibition at 40 g/ha: 65%
[1]; Abutilon theophrasti, 528 h, Frigate: No addition, Compound A 50 g/ha, duplicate, read-out: Growth Inhibition (%) Velvetleaf
  inhibition at 50 g/ha: 75%
[1]; Abutilon theophrasti, 528 h, Frigate: No addition, Compound A 60 g/ha, duplicate, read-out: Growth Inhibition (%) Velvetleaf
  inhibition at 60 g/ha: 80%
[1]; [6]
  Growth Inhibition (%) Velvetleaf: 50%
[2]; [6]
  Growth Inhibition (%) Common Cocklebur: 25%
[2]; Frigate: No addition, Compound A 20 g/ha, duplicate
  Growth Inhibition (%) Common Cocklebur: 40%
[2]; Xanthium strumarium, 528 h, Frigate 0.125 % by volume, Compound A 10 g/ha, duplicate, read-out: Growth Inhibition (%) Common Cocklebur
  inhibition at 10 g/ha: 35%
[2]; Xanthium strumarium, 528 h, Frigate 0.125 % by volume, Compound A 20 g/ha, duplicate, read-out: Growth Inhibition (%) Common Cocklebur
  inhibition at 20 g/ha: 80%
[2]; Xanthium strumarium, 528 h, Frigate 0.125 % by volume, duplicate, read-out: Growth Inhibition (%) Common Cocklebur
  inhibition at 40 g/ha: 100%
[2]; Xanthium strumarium, 528 h, Frigate 0.25 % by volume, Compound A 10 g/ha, duplicate, read-out: Growth Inhibition (%) Common Cocklebur
  inhibition at 10 g/ha: 30%
[2]; Xanthium strumarium, 528 h, Frigate 0.25 % by volume, Compound A 20 g/ha, duplicate, read-out: Growth Inhibition (%) Common Cocklebur
  inhibition at 20 g/ha: 95%
[2]; Xanthium strumarium, 528 h, Frigate 0.25 % by volume, duplicate, read-out: Growth Inhibition (%) Common Cocklebur
  inhibition at 40 g/ha: 100%
[2]; Xanthium strumarium, 528 h, Frigate 0.5 % by volume, Compound A 10 g/ha, duplicate, read-out: Growth Inhibition (%) Common Cocklebur
  inhibition at 10 g/ha: 60%
[2]; Xanthium strumarium, 528 h, Frigate 0.5 % by volume, Compound A 20 g/ha, duplicate, read-out: Growth Inhibition (%) Common Cocklebur
  inhibition at 20 g/ha: 98%
[2]; Xanthium strumarium, 528 h, Frigate 0.5 % by volume, read-out: Growth Inhibition (%) Common Cocklebur
  inhibition at 40 g/ha: 100%
[2]; Xanthium strumarium, 528 h, Frigate: No addition, duplicate, read-out: Growth Inhibition (%) Common Cocklebur
  inhibition at 40 g/ha: 85%
[2]; Xanthium strumarium, 528 h, Frigate: No addition, Compound A 50 g/ha, duplicate, read-out: Growth Inhibition (%) Common Cocklebur
  inhibition at 50 g/ha: 95%
[2]; Xanthium strumarium, 528 h, Frigate: No addition, Compound A 60 g/ha, duplicate, read-out: Growth Inhibition (%) Common Cocklebur
  inhibition at 60 g/ha: 98%
